Experimental findings from US10626112B2, “Heterocyclic sulfonamide derivative and medicine comprising same” (EA PHARMA CO., LTD., priority 2014, dated 2020) are described below.

Structures are written as SMILES.

In general, IC50 refers to the midpoint of a concentration-inhibition curve.

The test deals with human TRPA1 (Homo sapiens (Human), UniProt O75762). The experiment in a line: Measurement of TRPA1 antagonist activity (1): intracellular calcium increase. It counts as cell-based. To be noted: 293T cells transfected with human TRPA1 expression plasmid; allylisothiocyanate 20 μM stimulation; intracellular calcium fluorescence; read-out: hTRPA1 IC50. A digest of the protocol: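 Calcium-flux readout of TRPA1 block: compound given 10 min before 20 μM (final) allylisothiocyanate, fluorescence tracked 5 min. Cells were 293T transiently expressing human TRPA1, dye-loaded 1 hr in HBSS, 20 mM HEPES, pH 7.2. Inhibition scaled between agonist-only and buffer-only responses; IC50 by sigmoid fitting.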
(Calcium flux is commonly read through the fluorescence of an indicator in the cells.)

human TRPA1, sequence (O75762 whole entry): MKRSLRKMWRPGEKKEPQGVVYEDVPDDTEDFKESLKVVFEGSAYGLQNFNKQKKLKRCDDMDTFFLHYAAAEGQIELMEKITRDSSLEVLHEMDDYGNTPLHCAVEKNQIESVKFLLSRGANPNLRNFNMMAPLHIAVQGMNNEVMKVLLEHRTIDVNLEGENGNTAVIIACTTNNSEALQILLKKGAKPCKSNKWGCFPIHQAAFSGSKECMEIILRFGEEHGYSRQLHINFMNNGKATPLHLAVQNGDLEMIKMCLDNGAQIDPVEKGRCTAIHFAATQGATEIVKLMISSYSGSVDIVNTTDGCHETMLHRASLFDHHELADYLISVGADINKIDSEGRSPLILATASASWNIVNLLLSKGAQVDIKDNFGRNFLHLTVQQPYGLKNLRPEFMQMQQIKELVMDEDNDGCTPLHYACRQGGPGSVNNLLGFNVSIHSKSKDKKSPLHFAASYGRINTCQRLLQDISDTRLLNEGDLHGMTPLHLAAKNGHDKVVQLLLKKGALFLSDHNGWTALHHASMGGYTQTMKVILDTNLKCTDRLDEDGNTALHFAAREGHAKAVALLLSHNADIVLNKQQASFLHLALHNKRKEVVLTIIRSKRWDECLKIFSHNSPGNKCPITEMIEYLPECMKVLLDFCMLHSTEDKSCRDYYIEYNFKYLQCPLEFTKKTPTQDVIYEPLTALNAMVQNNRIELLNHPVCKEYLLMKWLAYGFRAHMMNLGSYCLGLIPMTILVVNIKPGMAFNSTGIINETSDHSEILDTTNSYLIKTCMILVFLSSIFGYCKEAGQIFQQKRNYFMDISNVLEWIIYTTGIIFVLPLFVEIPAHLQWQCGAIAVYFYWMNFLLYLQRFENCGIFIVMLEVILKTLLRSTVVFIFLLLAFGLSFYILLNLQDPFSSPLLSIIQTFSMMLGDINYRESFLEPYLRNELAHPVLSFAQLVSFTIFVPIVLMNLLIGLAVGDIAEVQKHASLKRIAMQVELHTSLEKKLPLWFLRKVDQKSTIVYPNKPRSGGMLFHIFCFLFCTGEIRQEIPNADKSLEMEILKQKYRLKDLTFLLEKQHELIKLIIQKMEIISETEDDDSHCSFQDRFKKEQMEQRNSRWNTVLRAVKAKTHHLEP

Turning to `O=C(NCc1ccc(O)c(-c2ncc(C(F)(F)F)cn2)c1)[C@@H]1CCCN1S(=O)(=O)c1cc2ccccc2o1` [Example 213, (2S)-1-(benzofuran-2-ylsulfonyl)-N-[[4-hydroxy-3-[5-(trifluoromethyl)-pyrimidin-2-yl]phenyl]-methyl]pyrrolidine-2-carboxamide], the half-maximal inhibitory concentration (IC50) came to 47 nM.

For `O=C(NCc1ccc(O)c(-c2cnc(C(F)(F)F)cn2)c1)[C@@H]1CCCN1S(=O)(=O)c1cc2ccccc2o1` [Example 214, (2S)-1-(benzofuran-2-ylsulfonyl)-N-[[4-hydroxy-3-[5-(trifluoromethyl)-pyrazin-2-yl]phenyl]-methyl]pyrrolidine-2-carboxamide], the IC50 came out at 13 nM.

Regarding `O=C(NCc1cc(-c2ccc(C(F)(F)F)cn2)c(O)cn1)[C@@H]1CCCN1S(=O)(=O)c1cc2ccccc2o1` [Example 215, (2S)-1-(benzofuran-2-ylsulfonyl)-N-[[5-hydroxy-4-[5-(trifluoromethyl)-2-pyridyl]-2-pyridyl]methyl]pyrrolidine-2-carboxamide], the IC50 turned out to be 2.1 nM.

`O=C(NC1(c2cc(Cl)cc(-c3ccc(C(F)(F)F)nc3)c2)CC1)[C@@H]1CCCN1S(=O)(=O)c1cc2ccccc2o1` [Example 216, (2S)-1-(benzofuran-2-ylsulfonyl)-N-[1-[3-chloro-5-[6-(trifluoromethyl)-3-pyridyl]phenyl]cyclopropyl]-pyrrolidine-2-carboxamide]: the IC50 was found to be 13 nM.

As for `O=C(NC1(c2ccnc(-c3ccc(C(F)(F)F)cc3)c2)CC1)[C@@H]1CCCN1S(=O)(=O)c1cc2ccccc2o1` [Example 217, (2S)-1-(benzofuran-2-ylsulfonyl)-N-[1-[2-[4-(trifluoromethyl)phenyl]-4-pyridyl]cyclopropyl]-pyrrolidine-2-carboxamide], the IC50 was 64 nM.

As to `O=C(NC1(c2ccnc(-c3ccc(C(F)(F)F)nc3)c2)CC1)[C@@H]1CCCN1S(=O)(=O)c1cc2ccccc2o1` [Example 218, (2S)-1-(benzofuran-2-ylsulfonyl)-N-[1-[2-[6-(trifluoromethyl)-3-pyridyl]-4-pyridyl]cyclopropyl]-pyrrolidine-2-carboxamide], the IC50 came to 96 nM.

Turning to `O=C(NCc1ccnc(-c2ccc(C(F)(F)F)cc2)c1)[C@@H]1CCCN1S(=O)(=O)c1cc2cccc(F)c2o1` [Example 219, (2S)-1-(7-fluorobenzofuran-2-yl)sulfonyl-N-[[2-[4-(trifluoromethyl)phenyl]-4-pyridyl]methyl]pyrrolidine-2-carboxamide], the IC50 was found to be 390 nM.

Take `O=C(NCc1ccnc(-c2ccc(C(F)(F)F)cc2)c1)[C@@H]1CCCN1S(=O)(=O)c1cc2ccc(F)cc2o1` [Example 220, (2S)-1-(6-fluorobenzofuran-2-yl)sulfonyl-N-[[2-[4-(trifluoromethyl)phenyl]-4-pyridyl]methyl]pyrrolidine-2-carboxamide]: the IC50 came out at 54 nM.

Consider `O=C(NCc1ccnc(-c2ccc(C(F)(F)F)cn2)c1)[C@@H]1CCCN1S(=O)(=O)c1cc2cc(F)ccc2o1` [Example 221, (2S)-1-(5-fluorobenzofuran-2-yl)sulfonyl-N-[[2-[5-(trifluoromethyl)-2-pyridyl]-4-pyridyl]methyl]pyrrolidine-2-carboxamide], for which the IC50 came to 6.6 nM.

For the molecule `O=C(NCc1cc(-c2ccc(OC(F)(F)F)cc2)ccn1)[C@@H]1CCCN1S(=O)(=O)c1cc2cc(F)ccc2o1` [Example 222, (2S)-1-(5-fluorobenzofuran-2-yl)sulfonyl-N-[[4-[4-(trifluoromethoxy)phenyl]-2-pyridyl]methyl]pyrrolidine-2-carboxamide], the IC50 was 2.4 nM.

Turning to `O=C(NCc1cc(-c2ccc(C(F)(F)F)cn2)ccn1)[C@@H]1CCCN1S(=O)(=O)c1cc2cc(F)ccc2o1` [Example 223, (2S)-1-(5-fluorobenzofuran-2-yl)sulfonyl-N-[[4-[5-(trifluoromethyl)-2-pyridyl]-2-pyridyl]methyl]pyrrolidine-2-carboxamide], the IC50 is 0.88 nM.

For `O=C(NCc1cc(-c2ccc(C(F)(F)F)nc2)ncn1)[C@@H]1CCCN1S(=O)(=O)c1cc2cc(F)ccc2o1` [Example 224, (2S)-1-(5-fluorobenzofuran-2-yl)sulfonyl-N-[[6-[6-(trifluoromethyl)-3-pyridyl]pyrimidin-4-yl]methyl]pyrrolidine-2-carboxamide], the IC50 was found to be 0.66 nM.

As for `O=C(NCc1cc(-c2ccc(C(F)(F)F)cn2)ccn1)[C@@H]1C=CCN1S(=O)(=O)c1cc2cc(F)ccc2o1` [Example 225, (2S)-1-(5-fluorobenzofuran-2-yl)sulfonyl-N-[[4-[5-(trifluoromethyl)-2-pyridyl]-2-pyridyl]methyl]-2,5-dihydropyrrole-2-carboxamide], the IC50 was found to be 1.3 nM.

Take `O=C(NCc1cc(-c2ccc(C(F)(F)F)cc2)ncn1)[C@@H]1[C@@H](O)CCN1S(=O)(=O)c1cc2ccccc2o1` [Example 226, (2S,3S)-1-(benzofuran-2-ylsulfonyl)-3-hydroxy-N-[[6-[4-(trifluoromethyl)-phenyl]pyrimidin-4-yl]methyl]pyrrolidine-2-carboxamide]: the IC50 came out at 25 nM.

For the molecule `O=C(NCc1cc(-c2ccc(C(F)(F)F)cn2)ccn1)[C@@H]1[C@@H](O)CCN1S(=O)(=O)c1cc2ccccc2o1` [Example 227, (2S,3S)-1-(benzofuran-2-ylsulfonyl)-3-hydroxy-N-[[4-[5-(trifluoromethyl)-2-pyridyl]-2-pyridyl]methyl]pyrrolidine-2-carboxamide], the IC50 was 42 nM.

As to `O=C(NCc1cc(-c2ccc(C(F)(F)F)cn2)ccn1)[C@@H]1[C@@H](O)CCN1S(=O)(=O)c1cc2cc(F)ccc2o1` [Example 228, (2S,3S)-1-(5-fluorobenzofuran-2-yl)sulfonyl-3-hydroxy-N-[[4-[5-(trifluoromethyl)-2-pyridyl]-2-pyridyl]methyl]pyrrolidine-2-carboxamide], the IC50 stood at 32 nM.

In the case of `O=C(NCc1cc(-c2ccc(C(F)(F)F)cn2)ccn1)[C@@H]1CC(F)(F)CN1S(=O)(=O)c1cc2cc(F)ccc2o1` [Example 229, (2S)-4,4-difluoro-1-(5-fluorobenzofuran-2-yl)sulfonyl-N-[[4-[5-(trifluoromethyl)-2-pyridyl]-2-pyridyl]methyl]pyrrolidine-2-carboxamide], the IC50 was determined as 12 nM.

As for `O=C(NCc1cc(-c2ccc(C(F)(F)F)cn2)ccn1)[C@@H]1CCN1S(=O)(=O)c1cc2cc(F)ccc2o1` [Example 230, (2S)-1-(5-fluorobenzofuran-2-yl)sulfonyl-N-[[4-[5-(trifluoromethyl)-2-pyridyl]-2-pyridyl]methyl]azetidine-2-carboxamide], the IC50 worked out at 4.4 nM.

As to `C[C@H](NS(=O)(=O)c1cc2ccccc2o1)C(=O)NCc1cc(-c2ccc(OC(F)(F)F)cc2)ncn1` [Example 231, (2S)-2-(benzofuran-2-ylsulfonylamino)-N-[[6-[4-(trifluoromethoxy)phenyl]-pyrimidin-4-yl]methyl]propanamide], the IC50 turned out to be 14 nM.

Consider `C[C@H](NS(=O)(=O)c1cc2cc(F)ccc2o1)C(=O)NCc1cccc(-c2ncc(C(F)(F)F)cn2)c1` [Example 232, (2S)-2-[(5-fluorobenzofuran-2-yl)sulfonylamino]-N-[[3-[5-(trifluoromethyl)pyrimidin-2-yl]phenyl]methyl]propanamide], for which the IC50 stood at 77 nM.

`C[C@H](NS(=O)(=O)c1cc2cc(F)ccc2o1)C(=O)NCc1cccc(-c2cnc(C(F)(F)F)nc2)c1` [Example 233, (2S)-2-[(5-fluorobenzofuran-2-yl)sulfonylamino]-N-[[3-[2-(trifluoromethyl)pyrimidin-5-yl]phenyl]methyl]propanamide]: the IC50 amounted to 10 nM.

For `C[C@H](NS(=O)(=O)c1cc2cc(F)ccc2o1)C(=O)NCc1cccc(-c2cnc(C(F)(F)F)cn2)c1` [Example 234, (2S)-2-[(5-fluorobenzofuran-2-yl)sulfonylamino]-N-[[3-[5-(trifluoromethyl)pyrazin-2-yl]phenyl]methyl]propanamide], the IC50 turned out to be 34 nM.

Regarding `C[C@H](NS(=O)(=O)c1cc2cc(F)ccc2o1)C(=O)NCc1cccc(-c2ccc(C(F)(F)F)nn2)c1` [Example 235, (2S)-2-[(5-fluorobenzofuran-2-yl)sulfonylamino]-N-[[3-[6-(trifluoromethyl)pyridazin-3-yl]phenyl]methyl]propanamide], the IC50 was 20 nM.

Turning to `C[C@H](NS(=O)(=O)c1cc2cc(F)ccc2o1)C(=O)NCc1ccnc(-c2ccc(C(F)(F)F)nc2)c1` [Example 236, (2S)-2-[(5-fluorobenzofuran-2-yl)sulfonylamino]-N-[[2-[6-(trifluoromethyl)-3-pyridyl]-4-pyridyl]methyl]propanamide], the half-inhibitory concentration (IC50) was 31 nM.

In the case of `C[C@H](NS(=O)(=O)c1cc2cc(F)ccc2o1)C(=O)NCc1ccnc(-c2ccc(C(F)(F)F)cn2)c1` [Example 237, (2S)-2-[(5-fluorobenzofuran-2-yl)sulfonylamino]-N-[[2-[5-(trifluoromethyl)-2-pyridyl]-4-pyridyl]methyl]propanamide], the IC50 turned out to be 270 nM.

As for `C[C@H](NS(=O)(=O)c1cc2cc(F)ccc2o1)C(=O)NCc1ccnc(-c2cnc(C(F)(F)F)nc2)c1` [Example 238, (2S)-2-[(5-fluorobenzofuran-2-yl)sulfonylamino]-N-[[2-[2-(trifluoromethyl)pyrimidin-5-yl]-4-pyridyl]methyl]propanamide], the IC50 worked out at 42 nM.

For `C[C@H](NS(=O)(=O)c1cc2cc(F)ccc2o1)C(=O)NCc1cc(-c2ccc(OC(F)(F)F)cc2)ccn1` [Example 239, (2S)-2-[(5-fluorobenzofuran-2-yl)sulfonylamino]-N-[[4-[4-(trifluoromethoxy)phenyl]-2-pyridyl]methyl]propanamide], the IC50 was determined as 17 nM.

As for `C[C@H](NS(=O)(=O)c1cc2cc(F)ccc2o1)C(=O)NCc1cc(-c2ccc(C(F)(F)F)cn2)ccn1` [Example 240, (2S)-2-[(5-fluorobenzofuran-2-yl)sulfonylamino]-N-[[4-[5-(trifluoromethyl)-2-pyridyl]-2-pyridyl]methyl]propanamide], the IC50 was determined as 14 nM.
